{"source": "patent US20260053836A1", "about": "“CHRONIC WOUND HEALING COMPOSITION AND APPLICATION THEREOF” (priority 2019, published 2026)", "key": {"[1]": {"test_system": "HaCaT cells", "test": "Cell migration assay of HaCaT cells in high glucose culture", "format": "cell-based, human", "settings": "high glucose (25 mM), 48 hours, control group taken as 1", "description": "Human dermal fibroblasts (HDF cells) or human keratinocytes (HuCaT cells) were cultured in a humid incubator at 37° C. in an environment of 5% carbon dioxide and […] and placed in Dulbecco's modified Eagle's medium (DMEM) supplemented with glucose, 10% fetal bovine serum, 100 IU/mL penicillin, 100 μg/mL streptomycin, 2 mM sodium pyruvate and 1% nonessential amino acids (NEAA). The medium was changed every two days. For subculture, cells were harvested and re-cultured at a 1:10 dilution after exposure to 0.1% Trypsin-EDTA mixture. The cells used in the study ranged from 12 to 40 passages. 24 hours before drug treatment, cells were seeded and left for 24 hours. The control group was maintained in the medium and […]. Under this culture condition, cell growth and differentiation are not affected.\nHaCaT cells were cultured at 1×10^5 with addition of 25 mM glucose in a 24-well culture dish for 48 hours, and the following drugs were added to observe the cell migration state: • Con: the control group; • BO 18.8 μM+A 16.0 μM; • BSG 14.2 μM+A 16.0 μM; • BO 18.8 μM+BSG 14.2 μM; • All: A 16.0 μM+BO 18.8 μM+BSG 14.2 μM."}, "[2]": {"test_system": "Staphylococcus aureus", "settings": "Guillermo et al., 1999; cited from earlier work"}}, "data": [{"smiles": "O=C(O)c1cc(O)c2c(c1)[O][Bi]([OH])[O]2", "note": "[BSG, Bismuth subgallate]", "values": [{"measurement": "cell migration", "setting": "[1]", "result": "no promoting effect"}]}, {"smiles": "CC1(C)C2CCC1(C)C(O)C2", "note": "(stereo not drawn) [BO, Borneal]", "values": [{"measurement": "cell migration", "setting": "[1]", "result": "no promoting effect"}]}, {"smiles": "C[C@@H]1O[C@@H](O[C@@H]2[C@@H](O)[C@H](OCCc3ccc(O)c(O)c3)O[C@H](CO)[C@H]2OC(=O)/C=C/c2ccc(O)c(O)c2)[C@H](O)[C@H](O)[C@H]1O", "note": "[Acteosides, Acteoside]", "values": [{"measurement": "antibacterial efficacy", "setting": "[2]", "result": "good antibacterial efficacy"}]}]}
